Experimental data: patent publication US20080171051A1, “Cancer Treatment” (priority 2003, published 2008)
pIC50: −log10 of the molar value.

How the values were obtained:
[1] = adjuvant setting of colorectal cancer; cited from earlier work
HFL24 cells = assay: Flow cytometric analysis of apoptosis, HFL24 cells (c-FLIPL-overexpressing HCT116); format: cell-based, human; conditions: 5 μM 5-FU for 72 hours
Protocol: (§1) Generation of c-FLIP overexpressing cell lines. c-FLIPL and c-FLIPS coding regions were PCR amplified and ligated into the pcDNA/V5-His TOPO vector according to the manufacturer's instructions (Life Technologies Inc.). HCT116p53^+/+ cells were co-transfected with 10 μg of each c-FLIP expression construct and 1 μg of a construct expressing a puromycin resistance gene (pIRESpuro3, Clontech) using GeneJuice. Stably transfected HCT116 cells were selected and maintained in medium supplemented with 1 μg/ml puromycin (Life Technologies Inc.). Stable overexpression of c-FLIP was assessed by Western blot analysis.
(§2) Flow Cytometric Analysis. Cells were seeded at 1×10^5 per well of a 6-well tissue culture plate. […] DNA content of harvested cells was evaluated after propidium iodide staining of cells using the EPICS XL Flow Cytometer (Coulter, Miami, Fla.).

HLacZ cell line = assay: Flow cytometric analysis of apoptosis, HLacZ control cell line; format: cell-based, human; conditions: 5 μM 5-FU for 72 hours
Protocol: as §1, §2

[2] = patients with metastatic colorectal cancer; cited from earlier work
HFL17 cells = assay: Flow cytometric analysis of apoptosis, HFL17 cells (c-FLIPL-overexpressing HCT116); format: cell-based, human; conditions: 5 μM 5-FU for 72 hours
Protocol: as §1, §2

Fas = assay: Western blot analysis of Fas expression in MCF-7 cells; format: cell-based; conditions: 72 hours after IC60 dose
Protocol: (§3) Western Blotting. Western blots were performed as previously described (Longley et al., 2002). The Fas/CD95, Bcl-2 and BID (Santa Cruz Biotechnology, Santa Cruz, Calif.), caspase 8 (Oncogene Research Products, Darmstadt, Germany), PARP (Pharmingen, BD Biosciences, Oxford, England), c-FLIP (NF-6, Alexis, Bingham UK) DcR3 (Imgenex, San Diego, Calif.) mouse monoclonal antibodies were used in conjunction with a horseradish peroxidase (HRP)-conjugated sheep anti-mouse secondary antibody (Amersham, Little Chalfont, Buckinghamshire, England). FasL rabbit polyclonal antibody (Santa Cruz Biotechnology) was used in conjunction with an HRP-conjugated donkey anti-rabbit secondary antibody (Amersham). Equal loading was assessed using a β-tubulin mouse monoclonal primary antibody (Sigma).

HCT116p53+/+ cells [3] = assay: MTT cell viability assay, HCT116 p53 wild type cells; format: cell-based, human; conditions: for IC60(72h) dose: HCT116p53+/+ cells; for synergy with CH-11 (RI from MTT): HCT116 p53 wild-type, drug 24 hours then CH-11 200 ng/ml for 48 hours; for effect on cell viability: HCT116 cells, presence or absence of drug
Protocol: (§4) Cell Viability Assays. […] To investigate drug-induced Fas-mediated apoptosis, cells were seeded at 2,000-5,000 cells per well on 96-well plates. […] To assess chemotherapy/siRNA interactions, 20,000-50,000 cells were seeded per well on 24-well plates. Twenty-four hours later, the cells were transfected with FLIP-targeted (FT) or scrambled siRNA (SC). […] MTT (0.5 mg/ml) was added to each well and the cells were incubated at 37° C. for a further 2 hours. The culture medium was removed and formazan crystals reabsorbed in 200 μl (96-well) or 1 ml (24-well) DMSO. Cell viability was determined by reading the absorbance of each well at 570 nm using a microplate reader (Molecular Devices, Wokingham, England).
(§5) siRNA transfections. FLIP-targeted siRNA was designed using the Ambion siRNA target finder and design tool (www.ambion.com/techlib/misc/siRNA_finder.html) to inhibit both splice variants of c-FLIP. Both c-FLIP-targeted (FT) and scrambled control (SC) siRNA were obtained from Xeragon (Germantown, Md.).
(§6) Statistical Analyses. The nature of the interaction between the chemotherapeutic drugs and FLIP-targeted siRNAs was determined by calculating the combination index (CI) according to the method of Chou and Talalay (14). CI values were calculated from isobolograms generated using the CalcuSyn software programme (Microsoft Windows). […] An unpaired two-tailed t test was used to determine the significance of changes in levels of apoptosis between different treatment groups.

HCT116p53-/- cells [4] = assay: MTT cell viability assay, HCT116 p53 null cells; format: cell-based, human; conditions: for synergy with CH-11 (RI from MTT): HCT116 p53 null, drug 24 hours then CH-11 200 ng/ml for 48 hours
Protocol: as §4, §5, §6

HCT116p53-/- cells [5] = assay: Flow cytometric analysis of apoptosis, HCT116p53-/- cells; format: cell-based, human; conditions: for cells in the sub-G0/G1 fraction (apoptosis): HCT116p53-/- cells, 1 nM siRNA, no drug, 5 μM 5-FU, 5 μM oxaliplatin or 1 μM CPT-11, 72 hours
Protocol: as §2
(§7) siRNA transfections. FLIP-targeted siRNA was designed using the Ambion siRNA target finder and design tool (www.ambion.com/techlib/misc/siRNA_finder.html) to inhibit both splice variants of c-FLIP. Both c-FLIP-targeted (FT) and scrambled control (SC) siRNA were obtained from Xeragon (Germantown, Md.). The FT siRNA sequence used was: […]. The FL siRNA sequence used was: […]. The control non-silencing siRNA sequence (SC) used was: […]. siRNA transfections were performed on sub-confluent cells incubated in Optimem medium using the oligofectamine reagent (both from Life Technologies Inc) according to the manufacturer's instructions.

[6] = test system: c-FLIPL-overexpressing HCT116p53+/+ cell lines (HFL17, HFL24); assay: Growth inhibition (MTT) in c-FLIPL-overexpressing HCT116p53+/+ cell lines versus HLacZ; format: cell-based, human
Protocol: as §4

c-FLIP [7] = assay: Western blot of c-FLIP expression after siRNA transfection, HCT116p53+/+ cells; format: cell-based, human; conditions: for down-regulation of c-FLIP expression: nanomolar concentrations
Protocol: as §3
siRNA transfections. FLIP-targeted siRNA was designed using the Ambion siRNA target finder and design tool (www.ambion.com/techlib/misc/siRNA_finder.html) to inhibit both splice variants of c-FLIP. Both c-FLIP-targeted (FT) and scrambled control (SC) siRNA were obtained from Xeragon (Germantown, Md.). The FT siRNA sequence used was: AAGCAGTCTGTTCAAGGAGCA. The FL siRNA sequence used was: AAGGAACAGCTTGGCGCTCAA. The control non-silencing siRNA sequence (SC) used was: AATTCTCCGAACGTGTCACGT. siRNA transfections were performed on sub-confluent cells incubated in Optimem medium using the oligofectamine reagent (both from Life Technologies Inc) according to the manufacturer's instructions.

HCT116p53+/+ cells [8] = assay: Flow cytometric analysis of apoptosis, HCT116p53+/+ cells; format: cell-based, human; conditions: for cells in the sub-G0/G1 apoptotic fraction: 0.5 nM siRNA, no drug, 5 μM 5-FU or 1 μM oxaliplatin for 48 hours
Protocol: as §2, §7

c-FLIP [9] = assay: Western blot of c-FLIP expression after siRNA transfection, H630 cells; format: cell-based; conditions: 1 nM, 24 hours
Protocol: as §3
(§8) siRNA transfections. FLIP-targeted siRNA was designed using the Ambion siRNA target finder and design tool (www.ambion.com/techlib/misc/siRNA_finder.html) to inhibit both splice variants of c-FLIP. Both c-FLIP-targeted (FT) and scrambled control (SC) siRNA were obtained from Xeragon (Germantown, Md.). The FT siRNA sequence used was: AAGCAGTCTGTTCAAGGAGCA. The FL siRNA sequence used was: AAGGAACAGCTTGGCGCTCAA. […]

c-FLIP [10] = assay: Western blot of c-FLIP expression after siRNA transfection, MCF-7 cells; format: cell-based; conditions: 10 nM FT siRNA
Protocol: as §3, §8

RKO cells = assay: MTT cell viability assay, RKO cells; format: cell-based; conditions: absence of chemotherapy, read-out: IC50(72h) dose
Protocol: as §4, §5
(§9) Statistical Analyses. The nature of the interaction between the chemotherapeutic drugs and FLIP-targeted siRNAs was determined by calculating the combination index (CI) according to the method of Chou and Talalay (14). CI values were calculated from isobolograms generated using the CalcuSyn software programme (Microsoft Windows). […]

H630 cells = assay: MTT cell viability assay, H630 cells; format: cell-based; conditions: absence of chemotherapy, read-out: IC50(72h) dose
Protocol: as §4, §5, §9

c-FLIP [11] = assay: Western blot of c-FLIP expression after siRNA transfection, HCT116p53-/- cells; format: cell-based, human; conditions: 1 nM FT siRNA
Protocol: as §3, §8

c-FLIP [12] = assay: Western blot of c-FLIP expression after siRNA transfection, RKO cells; format: cell-based; conditions: 1 nM, 24 hours
Protocol: as §3, §8

MCF-7 cells = format: cell-based; conditions: alone or in combination with 5-FU (data not shown)
Protocol: Cell Viability Assays. […] To assess chemotherapy/siRNA interactions, 20,000-50,000 cells were seeded per well on 24-well plates. Twenty-four hours later, the cells were transfected with FLIP-targeted (FT) or scrambled siRNA (SC). Four hours after transfection, the cells were treated with a range of concentrations of each drug for a further 72-96 hours. MTT (0.5 mg/ml) was added to each well and the cells were incubated at 37° C. for a further 2 hours. […] FLIP-targeted siRNA was designed using the Ambion siRNA target finder and design tool (www.ambion.com/techlib/misc/siRNA_finder.html) to inhibit both splice variants of c-FLIP. Both c-FLIP-targeted (FT) and scrambled control (SC) siRNA were obtained from Xeragon (Germantown, Md.). The FT siRNA sequence used was: [NT] The FL siRNA sequence used was: [NT] The control non-silencing siRNA sequence (SC) used was: [NT] siRNA transfections were performed on sub-confluent cells incubated in Optimem medium using the oligofectamine reagent (both from Life Technologies Inc) according to the manufacturer's instructions.

Fas death receptor = Fas death receptor (UniProt P25445); assay: cell-based or functional assay
Chain of Fas death receptor (P25445 26-335 limits assumed): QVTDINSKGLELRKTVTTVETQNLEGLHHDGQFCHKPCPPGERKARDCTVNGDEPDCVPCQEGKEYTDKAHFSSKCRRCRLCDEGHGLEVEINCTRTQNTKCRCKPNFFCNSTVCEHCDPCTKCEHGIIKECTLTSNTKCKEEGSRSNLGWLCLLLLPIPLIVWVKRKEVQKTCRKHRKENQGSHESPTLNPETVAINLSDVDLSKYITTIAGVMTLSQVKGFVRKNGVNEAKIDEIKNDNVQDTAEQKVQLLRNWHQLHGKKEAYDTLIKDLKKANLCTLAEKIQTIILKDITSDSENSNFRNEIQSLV

## 5-FU/leucovorin
[1]
  3-year survival: 72.9%

## O=c1[nH]cc(F)c(=O)[nH]1 [5-FU]
HFL24 cells
  cells in the sub-G1/G0 apoptotic fraction: ~17%
HLacZ cell line
  cells in the sub-G1/G0 apoptotic fraction: ~41%
[2]
  response rates: 10-15%
HFL17 cells
  cells in the sub-G1/G0 apoptotic fraction: ~15%
Fas
  up-regulation of Fas expression: ~12 fold
HCT116p53+/+ cells [3]
  IC60(72h) dose: 5000 nM

## CCc1c2c(nc3ccc(OC(=O)N4CCC(N5CCCCC5)CC4)cc13)-c1cc3c(c(=O)n1C2)COC(=O)[C@]3(O)CC [CPT-11, irinotecan]
HCT116p53-/- cells [4]
  synergy with CH-11 (RI from MTT): synergy
HCT116p53+/+ cells [3]
  synergy with CH-11 (RI from MTT): significant synergy
HCT116p53-/- cells [5]; HCT116 p53 null, drug 24 hours then CH-11 50 ng/ml 24 hours
  synergy with CH-11 (propidium iodide staining): significant synergy

## O=C1[O][Pt]2([NH][C@@H]3CCCC[C@H]3[NH]2)[O]C1=O [OXA, oxaliplatin]
[6]
  increase in the IC50(72h) dose caused by c-FLIPL overexpression: 1.7-2.0 fold
HCT116p53+/+ cells [3]
  IC60(72h) dose: 1000 nM

## Cc1nc2ccc(CN(C)c3ccc(C(=O)N[C@@H](CCC(=O)O)C(=O)O)s3)cc2c(=O)[nH]1 [TDX, tomudex]
HCT116p53-/- cells [4]
  synergy with CH-11 (RI from MTT): synergy
Fas
  up-regulation of Fas expression: ~7 fold
HCT116p53+/+ cells [3]
  synergy with CH-11 (RI from MTT): significant synergy

## FL siRNA: siRNA specifically down-regulating c-FLIPL; sequence AAGGAACAGCTTGGCGCTCAA (AAGGAACAGCTTGGCGCTCAA; listed as DNA, chemistry not given here)
c-FLIP [7]
  down-regulation of c-FLIP expression: specifically down-regulate the long splice form without affecting expression of c-FLIPS
HCT116p53+/+ cells [8]; PARP cleavage and flow cytometry (data not shown)
  apoptosis in the absence of chemotherapy: induced apoptosis

## FT siRNA: siRNA inhibiting both splice variants of c-FLIP; sequence AAGCAGTCTGTTCAAGGAGCA (AAGCAGTCTGTTCAAGGAGCA; chemistry not given here)
c-FLIP [9]
  down-regulation of c-FLIP protein: down-regulated c-FLIP protein
c-FLIP [7]
  down-regulation of c-FLIP expression: potently down-regulated expression of both c-FLIP splice variants
c-FLIP [7]; post-transfection, 1 and 10 nM FT siRNA
  time at which both c-FLIP splice forms were efficiently down-regulated: 8 h
HCT116p53-/- cells [4]; HCT116 p53 null cells, absence of chemotherapy, read-out: IC50(72h) dose
  pIC50: ~8.60
c-FLIP [10]
  down-regulation of c-FLIP expression: potently down-regulated expression of both c-FLIP splice variants
RKO cells
  pIC50: ~8.30
H630 cells
  pIC50: ~7.60
c-FLIP [11]
  down-regulation of c-FLIP expression: effectively down-regulated
HCT116p53+/+ cells [8]
  cells in the sub-G0/G1 apoptotic fraction: ~26%
HCT116p53+/+ cells [3]; HCT116 p53 wild type cells, absence of chemotherapy, read-out: IC50(72h) dose
  pIC50: ~9.15
HCT116p53-/- cells [5]
  cells in the sub-G0/G1 fraction (apoptosis): ~14%
c-FLIP [12]
  down-regulation of c-FLIP protein: down-regulated c-FLIP protein

## SC siRNA: control non-silencing siRNA; sequence AATTCTCCGAACGTGTCACGT (AATTCTCCGAACGTGTCACGT; chemistry not given here)
MCF-7 cells
  effect on cell viability: no effect on cell viability
HCT116p53+/+ cells [8]
  cells in the sub-G0/G1 apoptotic fraction: ~9%
HCT116p53+/+ cells [3]
  effect on cell viability: no significant effect on cell viability
HCT116p53+/+ cells [3]; listed as Control siRNA
  effect on cell viability: no effect on cell viability
HCT116p53-/- cells [5]
  cells in the sub-G0/G1 fraction (apoptosis): ~9%

## agonistic Fas monoclonal antibody CH-11
Fas death receptor
  cells in the sub-G1/G0 apoptotic phase (flow cytometry, MCF-7, 5-FU 72 h then 250 ng/ml CH-11 24 h): 55%
  cells in the sub-G1/G0 apoptotic phase (flow cytometry, MCF-7, OXA then CH-11): 50%
  cells in the sub-G1/G0 apoptotic phase (flow cytometry, MCF-7, TDX 72 h then 250 ng/ml CH-11 24 h): 60%
